Test results reported in ChEMBL document CHEMBL1201862, “PubChem BioAssay data set” (2004).
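A five-concentration, 48-hour dose response in 96-well plates underlies each endpoint, interpolated linearly between surrounding concentrations. Abbreviation: GI50, concentration required for 50% inhibition of growth.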 The source made the active and inactive calls. No stated cut-off is given here; in the data, active = GI50 up to about 1.1 µM and inactive = higher.

Columns and labels:
Assay in all cases: NCI-60 cell line screen, 48 h
LXFL 529 = test system: LXFL 529
SK-MEL-2 = test system: SK-MEL-2
NCI-H23 = test system: NCI-H23
DMS-114 = test system: DMS-114
HT-29 = test system: HT-29
A549 = test system: A549
SNB-75 = test system: SNB-75
SR = test system: SR
OVCAR-8 = test system: OVCAR-8
EKVX = test system: EKVX
HCT-15 = test system: HCT-15
786-0 = test system: 786-0
OVCAR-4 = test system: OVCAR-4
ACHN = test system: ACHN
UO-31 = test system: UO-31
NCI-H522 = test system: NCI-H522
SNB-78 = test system: SNB-78
SK-MEL-28 = test system: SK-MEL-28
HL-60 = test system: HL-60
SW-620 = test system: SW-620
NCI-H226 = test system: NCI-H226
LOX IMVI = test system: LOX IMVI
MOLT-4 = test system: MOLT-4
SK-OV-3 = test system: SK-OV-3
HCT-116 = test system: HCT-116
UACC-62 = test system: UACC-62
KM12 = test system: KM12
RPMI-8226 = test system: RPMI-8226
K562 = test system: K562
UACC-257 = test system: UACC-257
DMS-273 = test system: DMS-273
COLO 205 = test system: COLO 205
SNB-19 = test system: SNB-19
KM-20L2 = test system: KM-20L2
CCRF-CEM = test system: CCRF-CEM
Malme-3M = test system: Malme-3M
HOP-62 = test system: HOP-62
U-251 = test system: U-251
HOP-18 = test system: HOP-18
SN12C = test system: SN12C
M14 = test system: M14
SK-MEL-5 = test system: SK-MEL-5
SF-295 = test system: SF-295
RXF 393 = test system: RXF 393
NCI-H460 = test system: NCI-H460
M19-MEL = test system: M19-MEL
TK-10 = test system: TK-10
SF-268 = test system: SF-268
HOP-92 = test system: HOP-92
DLD-1 = test system: DLD-1
OVCAR-5 = test system: OVCAR-5
CAKI-1 = test system: CAKI-1
SF-539 = test system: SF-539
OVCAR-3 = test system: OVCAR-3
IGROV-1 = test system: IGROV-1
A498 = test system: A498

OC12c3ccccc3C1CCCCC2N1CCCC1 (stereo unspecified)
GI50 (LXFL 529): > 100 µM (inactive)
GI50 (SK-MEL-2): > 100 µM (inactive)
GI50 (NCI-H23): > 100 µM (inactive)
GI50 (DMS-114): > 100 µM (inactive)
GI50 (HT-29): > 100 µM (inactive)
GI50 (A549): > 100 µM (inactive)
GI50 (SNB-75): > 100 µM (inactive)
GI50 (SR): > 100 µM (inactive)
GI50 (OVCAR-8): > 100 µM (inactive)
GI50 (EKVX): > 100 µM (inactive)
GI50 (HCT-15): > 100 µM
GI50 (786-0): > 100 µM (inactive)
GI50 (OVCAR-4): > 100 µM (inactive)
GI50 (ACHN): > 100 µM (inactive)
GI50 (UO-31): > 100 µM (inactive)
GI50 (NCI-H522): > 100 µM (inactive)
GI50 (SNB-78): > 100 µM (inactive)
GI50 (SK-MEL-28): > 100 µM (inactive)
GI50 (HL-60): > 100 µM (inactive)
GI50 (SW-620): > 100 µM (inactive)
GI50 (NCI-H226): > 100 µM (inactive)
GI50 (LOX IMVI): > 100 µM (inactive)
GI50 (MOLT-4): > 100 µM (inactive)
GI50 (SK-OV-3): > 100 µM (inactive)
GI50 (HCT-116): > 100 µM (inactive)
GI50 (UACC-62): > 100 µM (inactive)
GI50 (KM12): > 100 µM (inactive)
GI50 (RPMI-8226): > 100 µM (inactive)
GI50 (K562): > 10 µM (inactive)
GI50 (UACC-257): > 100 µM (inactive)
GI50 (DMS-273): > 100 µM (inactive)
GI50 (COLO 205): > 100 µM (inactive)
GI50 (SNB-19): > 100 µM (inactive)
GI50 (KM-20L2): > 100 µM (inactive)
GI50 (CCRF-CEM): > 100 µM (inactive)
GI50 (Malme-3M): > 100 µM (inactive)
GI50 (HOP-62): > 100 µM (inactive)
GI50 (U-251): > 100 µM (inactive)
GI50 (HOP-18): > 100 µM (inactive)
GI50 (SN12C): > 100 µM (inactive)
GI50 (M14): > 100 µM (inactive)
GI50 (SK-MEL-5): > 100 µM (inactive)
GI50 (SF-295): > 100 µM (inactive)
GI50 (RXF 393): > 100 µM (inactive)
GI50 (NCI-H460): > 100 µM (inactive)
GI50 (M19-MEL): > 100 µM (inactive)
GI50 (TK-10): > 100 µM (inactive)
GI50 (SF-268): > 100 µM (inactive)

NC(CCCNCc1ccccc1O)C(=O)O (stereo unspecified)
GI50 (HOP-92): > 100 µM (inactive)
GI50 (LXFL 529): > 100 µM (inactive)
GI50 (SK-MEL-2): > 100 µM (inactive)
GI50 (NCI-H23): > 100 µM (inactive)
GI50 (DMS-114): > 100 µM (inactive)
GI50 (HT-29): > 100 µM (inactive)
GI50 (DLD-1): > 100 µM (inactive)
GI50 (OVCAR-5): > 100 µM (inactive)
GI50 (A549): > 100 µM (inactive)
GI50 (SNB-75): > 100 µM (inactive)
GI50 (CAKI-1): > 100 µM (inactive)
GI50 (OVCAR-8): > 100 µM (inactive)
GI50 (EKVX): > 100 µM (inactive)
GI50 (HCT-15): > 100 µM
GI50 (786-0): > 100 µM (inactive)
GI50 (OVCAR-4): > 100 µM (inactive)
GI50 (ACHN): > 100 µM (inactive)
GI50 (UO-31): > 100 µM (inactive)
GI50 (NCI-H522): > 100 µM (inactive)
GI50 (SNB-78): > 100 µM (inactive)
GI50 (SK-MEL-28): > 100 µM (inactive)
GI50 (HL-60): > 100 µM (inactive)
GI50 (SW-620): > 100 µM (inactive)
GI50 (NCI-H226): > 100 µM (inactive)
GI50 (LOX IMVI): > 100 µM (inactive)
GI50 (MOLT-4): > 100 µM (inactive)
GI50 (SK-OV-3): > 100 µM (inactive)
GI50 (HCT-116): > 100 µM (inactive)
GI50 (SF-539): > 100 µM (inactive)
GI50 (UACC-62): > 100 µM (inactive)
GI50 (KM12): > 100 µM (inactive)
GI50 (RPMI-8226): > 100 µM (inactive)
GI50 (K562): > 100 µM (inactive)
GI50 (UACC-257): > 100 µM (inactive)
GI50 (DMS-273): > 100 µM (inactive)
GI50 (OVCAR-3): > 100 µM (inactive)
GI50 (COLO 205): > 100 µM (inactive)
GI50 (SNB-19): > 100 µM (inactive)
GI50 (KM-20L2): > 100 µM (inactive)
GI50 (CCRF-CEM): > 100 µM (inactive)
GI50 (Malme-3M): > 100 µM (inactive)
GI50 (HOP-62): > 100 µM (inactive)
GI50 (HOP-18): > 100 µM (inactive)
GI50 (SN12C): > 100 µM (inactive)
GI50 (M14): > 100 µM (inactive)
GI50 (SK-MEL-5): > 100 µM (inactive)
GI50 (SF-295): > 100 µM (inactive)
GI50 (IGROV-1): > 100 µM (inactive)
GI50 (NCI-H460): > 100 µM (inactive)
GI50 (M19-MEL): > 100 µM (inactive)
GI50 (TK-10): > 100 µM (inactive)
GI50 (A498): > 100 µM (inactive)
GI50 (SF-268): > 100 µM (inactive)
